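The compound was tested at five concentrations on cells cultured in 96-well plates, with a 48-hour exposure period. GI50: concentration for 50% inhibition of growth.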 The source made the active and inactive calls. Cut-off read from the data, not from the text of the source: active = GI50 up to about 1.1 µM and inactive = higher.
Columns and labels:
Test in all cases: growth of human tumour cells (NCI), 48 h
SF-539 = tested on: SF-539
NCI-H23 = tested on: NCI-H23
BT-549 = tested on: BT-549
ACHN = tested on: ACHN
NCI-H460 = tested on: NCI-H460
NCI-H522 = tested on: NCI-H522
SN12C = tested on: SN12C
786-0 = tested on: 786-0
SK-MEL-28 = tested on: SK-MEL-28
UACC-257 = tested on: UACC-257
HCT-15 = tested on: HCT-15
MCF7 = tested on: MCF7
UACC-62 = tested on: UACC-62
U-251 = tested on: U-251
M14 = tested on: M14
OVCAR-5 = tested on: OVCAR-5
SK-MEL-2 = tested on: SK-MEL-2
OVCAR-4 = tested on: OVCAR-4
MDA-MB-435 = tested on: MDA-MB-435
SNB-75 = tested on: SNB-75
RPMI-8226 = tested on: RPMI-8226
TK-10 = tested on: TK-10
IGROV-1 = tested on: IGROV-1
SW-620 = tested on: SW-620
SNB-19 = tested on: SNB-19
COLO 205 = tested on: COLO 205
SF-295 = tested on: SF-295
MDA-N = tested on: MDA-N
NCI/ADR-RES = tested on: NCI/ADR-RES
EKVX = tested on: EKVX
SF-268 = tested on: SF-268
KM12 = tested on: KM12
RXF 393 = tested on: RXF 393
LOX IMVI = tested on: LOX IMVI
OVCAR-8 = tested on: OVCAR-8
CAKI-1 = tested on: CAKI-1
DU-145 = tested on: DU-145
Malme-3M = tested on: Malme-3M
HOP-62 = tested on: HOP-62
PC-3 = tested on: PC-3
UO-31 = tested on: UO-31
Hs-578T = tested on: Hs-578T
OVCAR-3 = tested on: OVCAR-3
A498 = tested on: A498
T47D = tested on: T47D
HCT-116 = tested on: HCT-116
HT-29 = tested on: HT-29
NCI-H226 = tested on: NCI-H226
SK-MEL-5 = tested on: SK-MEL-5
MDA-MB-231 = tested on: MDA-MB-231
A549 = tested on: A549
SK-OV-3 = tested on: SK-OV-3
HL-60 = tested on: HL-60
SR = tested on: SR
HCC 2998 = tested on: HCC 2998
MOLT-4 = tested on: MOLT-4
CCRF-CEM = tested on: CCRF-CEM
K562 = tested on: K562

Measured: GI50

Cc1ccc(S(=O)(=O)Nc2ccccc2C(=O)c2ccc(C)c(C)c2)cc1
> 100 µM: HCT-15
inactive: SF-539 > 100 µM | NCI-H23 > 100 µM | BT-549 > 100 µM | ACHN 55.2 µM | NCI-H460 80.2 µM | NCI-H522 39.9 µM | SN12C > 100 µM | 786-0 > 100 µM | SK-MEL-28 > 100 µM | UACC-257 53.1 µM | MCF7 52.7 µM | UACC-62 88.5 µM | U-251 85.1 µM | M14 > 100 µM | OVCAR-5 > 100 µM | SK-MEL-2 > 100 µM | OVCAR-4 > 100 µM | MDA-MB-435 41.9 µM | SNB-75 > 100 µM | RPMI-8226 42.9 µM | TK-10 > 100 µM | IGROV-1 34.6 µM | SW-620 > 100 µM | SNB-19 > 100 µM | COLO 205 > 100 µM | SF-295 75 µM | MDA-N 74.3 µM | NCI/ADR-RES > 100 µM | EKVX > 100 µM | SF-268 > 100 µM | KM12 63.4 µM | RXF 393 > 100 µM | LOX IMVI > 100 µM | OVCAR-8 > 100 µM | CAKI-1 > 100 µM | DU-145 > 100 µM | Malme-3M 59 µM | HOP-62 > 100 µM | PC-3 > 100 µM | UO-31 > 100 µM | Hs-578T 60.5 µM | OVCAR-3 83.9 µM | A498 94.6 µM | T47D 71.1 µM | HCT-116 > 100 µM | HT-29 > 100 µM | NCI-H226 > 100 µM | SK-MEL-5 35 µM | MDA-MB-231 > 100 µM | A549 > 100 µM | SK-OV-3 > 100 µM

COc1ccccc1NC(=O)O/N=C(/Cl)C(C)C
inactive: SF-539 19.5 µM | NCI-H23 14 µM | BT-549 3.48 µM | ACHN 5.92 µM | NCI-H460 19.3 µM | NCI-H522 1.81 µM | SN12C 15.4 µM | 786-0 11.9 µM | SK-MEL-28 13.6 µM | UACC-257 13.7 µM | MCF7 > 10 µM | UACC-62 17.5 µM | U-251 16.7 µM | M14 5.9 µM | OVCAR-5 16.3 µM | SK-MEL-2 16.4 µM | RPMI-8226 2.1 µM | TK-10 13.6 µM | IGROV-1 16.7 µM | SW-620 1.82 µM | SNB-19 30.9 µM | COLO 205 2.4 µM | SF-295 15.2 µM | MDA-N 13.6 µM | NCI/ADR-RES 15.3 µM | EKVX 16.1 µM | SF-268 16.6 µM | KM12 20.2 µM | RXF 393 14.9 µM | HL-60 1.64 µM | SR 1.91 µM | LOX IMVI 2.28 µM | OVCAR-8 15 µM | DU-145 18.8 µM | Malme-3M 2.78 µM | HOP-62 12.5 µM | PC-3 18.5 µM | HCC 2998 15.6 µM | UO-31 18.8 µM | MOLT-4 1.92 µM | Hs-578T 24.9 µM | OVCAR-3 6.19 µM | A498 15.6 µM | K562 2.24 µM | T47D 21 µM | HCT-116 14.1 µM | HT-29 3.49 µM | NCI-H226 20.8 µM | SK-MEL-5 11.8 µM | MDA-MB-231 7.19 µM | A549 18.2 µM | SK-OV-3 18.7 µM
13.2 µM: HCT-15
active: SNB-75 0.889 µM | CCRF-CEM 0.977 µM

C[C@H]1S[C@H](c2c(F)cccc2F)n2c1nc1ccccc12
47 µM: HCT-15
inactive: NCI-H23 34.8 µM | BT-549 52.8 µM | ACHN 55.1 µM | NCI-H460 25.4 µM | SN12C 74.1 µM | 786-0 64.9 µM | SK-MEL-28 71.3 µM | UACC-257 50.2 µM | MCF7 33.8 µM | UACC-62 63.1 µM | U-251 54.5 µM | M14 38.5 µM | OVCAR-5 66.8 µM | SK-MEL-2 15.1 µM | OVCAR-4 45.5 µM | MDA-MB-435 34 µM | SNB-75 > 100 µM | RPMI-8226 37.5 µM | TK-10 > 100 µM | IGROV-1 > 100 µM | SW-620 88.1 µM | SNB-19 > 100 µM | COLO 205 37 µM | SF-295 39.1 µM | MDA-N 59.2 µM | NCI/ADR-RES 44.2 µM | EKVX 66.2 µM | SF-268 60.5 µM | KM12 86.5 µM | RXF 393 28.6 µM | OVCAR-8 69 µM | CAKI-1 74 µM | DU-145 > 100 µM | Malme-3M 41.5 µM | HOP-62 > 100 µM | PC-3 33.7 µM | HCC 2998 64.7 µM | UO-31 34.4 µM | MOLT-4 40.6 µM | Hs-578T 88.7 µM | OVCAR-3 24.2 µM | CCRF-CEM 40.5 µM | K562 35.3 µM | T47D 29.2 µM | HCT-116 34.6 µM | HT-29 47.3 µM | NCI-H226 > 100 µM | SK-MEL-5 20.2 µM | MDA-MB-231 68.7 µM | A549 47.1 µM | SK-OV-3 38.4 µM

CN(C)CCNC(=O)c1cc([N+](=O)[O-])ccn1
inactive: SF-539 22.8 µM | NCI-H23 20.9 µM | BT-549 84.5 µM | ACHN 36.7 µM | NCI-H460 38.1 µM | NCI-H522 18.1 µM | SN12C 23.8 µM | 786-0 42.5 µM | SK-MEL-28 > 100 µM | UACC-257 16.3 µM | MCF7 16.6 µM | UACC-62 19.2 µM | U-251 31 µM | M14 36.7 µM | OVCAR-5 71.4 µM | SK-MEL-2 24.2 µM | OVCAR-4 20.2 µM | MDA-MB-435 19 µM | SNB-75 > 100 µM | RPMI-8226 45.1 µM | TK-10 > 100 µM | IGROV-1 25.9 µM | SW-620 27 µM | SNB-19 33.6 µM | COLO 205 13.4 µM | SF-295 26.8 µM | MDA-N 16.7 µM | EKVX > 100 µM | SF-268 28.4 µM | KM12 32.8 µM | RXF 393 41.6 µM | HL-60 20.3 µM | SR 54.8 µM | LOX IMVI 30.1 µM | OVCAR-8 27.2 µM | CAKI-1 34 µM | DU-145 > 100 µM | Malme-3M 14.8 µM | HOP-62 31.4 µM | PC-3 23.1 µM | HCC 2998 40 µM | UO-31 > 100 µM | MOLT-4 23.1 µM | Hs-578T 46.8 µM | OVCAR-3 22.5 µM | CCRF-CEM 31.6 µM | A498 > 100 µM | K562 21.5 µM | T47D 30.3 µM | HCT-116 24.8 µM | HT-29 11.4 µM | NCI-H226 > 100 µM | SK-MEL-5 18.6 µM | MDA-MB-231 25.4 µM | A549 30.8 µM | SK-OV-3 70.3 µM
18.1 µM: HCT-15

CC1(C)CCc2c(cc3c(c2O)CCC(C)(C)O3)O1
64.7 µM: HCT-15
inactive: SF-539 > 100 µM | NCI-H23 > 100 µM | BT-549 > 100 µM | ACHN > 100 µM | NCI-H460 57 µM | NCI-H522 61.1 µM | SN12C > 100 µM | 786-0 > 10 µM | SK-MEL-28 > 100 µM | UACC-257 > 100 µM | MCF7 > 100 µM | UACC-62 > 100 µM | U-251 > 100 µM | M14 > 100 µM | OVCAR-5 > 100 µM | SK-MEL-2 25.1 µM | OVCAR-4 > 100 µM | SNB-75 80.5 µM | TK-10 > 100 µM | IGROV-1 > 100 µM | SW-620 > 100 µM | SNB-19 > 100 µM | COLO 205 > 100 µM | SF-295 96.8 µM | MDA-N > 100 µM | NCI/ADR-RES > 100 µM | EKVX > 100 µM | SF-268 > 100 µM | KM12 > 100 µM | HL-60 27.3 µM | SR 76.6 µM | OVCAR-8 > 100 µM | CAKI-1 > 100 µM | DU-145 > 100 µM | Malme-3M 12.3 µM | HOP-62 > 100 µM | PC-3 49.3 µM | HCC 2998 > 100 µM | UO-31 > 100 µM | MOLT-4 62.4 µM | Hs-578T > 100 µM | OVCAR-3 > 100 µM | CCRF-CEM 67.8 µM | A498 > 100 µM | K562 48.8 µM | T47D 41.8 µM | HCT-116 61.2 µM | HT-29 35.8 µM | NCI-H226 > 100 µM | SK-MEL-5 62.8 µM | MDA-MB-231 > 100 µM | A549 > 100 µM | SK-OV-3 > 100 µM

Source: ChEMBL document CHEMBL1201862, “PubChem BioAssay data set” (2004)
